BindingDB's records for doi:10.1016/j.bmcl.2021.128058 (Hibercell, 2021)
pIC50: −log10 of the molar value.

Assay: Inhibition of eIF2alpha (unknown origin) assessed as eIF2alpha phosphorylation by TR-FRET assay

First: Cc1cc(NC(=O)[C@H](O)c2cc(F)cc(F)c2)ccc1-c1cnc(N)c(C(=O)NC(C)C)c1
Second: Cc1cc(NC(=O)[C@@H](O)c2cc(F)cc(F)c2)ccc1-c1cnc(N)c(C(=O)NC(C)C)c1
The pIC50 of the first is 0.75 log units higher: 7.48 for the first, 6.73 for the second. The first is the more potent here.

First: Cc1cc(NC(=O)[C@H](O)c2ccccc2)ccc1-c1cnc(N)c(C(=O)NC(C)C)c1
Second: CO[C@@H](C(=O)Nc1ccc(-c2cnc(N)c(C(=O)NC(C)C)c2)c(C)c1)c1ccccc1
The pIC50 of the first is 1.22 log units higher: 6.70 for the first, 5.48 for the second.

First: Cc1cc(NC(=O)Cc2ccccc2)ccc1-c1cnc(N)c(C(=O)NC(C)C)c1
Second: Cc1cc(NC(=O)Oc2ccccc2)ccc1-c1cnc(N)c(C(=O)NC(C)C)c1
The pIC50 of the first is higher: 6.51 for the first, under 5.00 for the second. The first is the more potent here.

`Cc1cc(NC(=O)Nc2ccccc2)ccc1-c1cnc(N)c(C(=O)NC(C)C)c1` and `Cc1cc(NC(=O)[C@](C)(O)c2ccccc2)ccc1-c1cnc(N)c(C(=O)NC(C)C)c1` are within 0.2 log units of each other in pIC50: 5.63 for the first, 5.67 for the second.

Going from `Cc1cc(NC(=O)[C@@](C)(O)c2ccccc2)ccc1-c1cnc(N)c(C(=O)NC(C)C)c1` to `Cc1cccc([C@@H](O)C(=O)Nc2ccc(-c3cnc(N)c(C(=O)NC(C)C)c3)c(C)c2)c1`, the pIC50 rises from 5.52 to 7.27 (1.75 log units). The second is the more potent here.

First: Cc1cc(NC(=O)[C@H](O)c2cc(F)cc(F)c2)ccc1-c1cnc(N)c(C(=O)OC(C)C)c1
Second: Cc1cc(NC(=O)[C@H](O)c2cc(F)cc(F)c2)ccc1-c1cnc(N)c(C(=O)N(C)C)c1
The pIC50 of the first is 1.66 log units higher: 7.31 for the first, 5.65 for the second.

`CNC(=O)c1cc(-c2ccc(NC(=O)[C@H](O)c3cc(F)cc(F)c3)cc2C)cnc1N` and `CCNC(=O)c1cc(-c2ccc(NC(=O)[C@H](O)c3cc(F)cc(F)c3)cc2C)cnc1N` are within 0.2 log units of each other in pIC50: 7.24 for the first, 7.35 for the second.

First: Cc1cc(NC(=O)[C@H](O)c2cc(F)cc(F)c2)ccc1-c1cnc(N)c(C(=O)NC2CC2)c1
Second: Cc1cc(NC(=O)[C@H](O)c2cc(F)cc(F)c2)ccc1-c1cnc(N)c(C(=O)NC(C)(C)C)c1
The pIC50 of the first is 0.63 log units higher: 7.57 for the first, 6.94 for the second. The first is the more potent here.

Going from `Cc1cc(NC(=O)[C@H](O)c2cccc(Cl)c2)ccc1-c1cnc(N)c(C(=O)NC(C)C)c1` to `CCc1cccc([C@@H](O)C(=O)Nc2ccc(-c3cnc(N)c(C(=O)NC(C)C)c3)c(C)c2)c1`, the pIC50 rises from 7.40 to 7.74 (0.34 log units).

First: CC(C)NC(=O)c1cc(-c2ccc(NC(=O)[C@H](O)c3cc(F)cc(F)c3)cc2)cnc1N
Second: CC(C)NC(=O)c1cc(-c2ccc(NC(=O)[C@H](O)c3cc(F)cc(F)c3)cc2F)cnc1N
The pIC50 of the first is 0.64 log units lower: 6.50 for the first, 7.14 for the second. The second is the more potent here.

First: CC(C)NC(=O)c1cc(-c2ccc(NC(=O)[C@H](O)c3cc(F)cc(F)c3)cc2Cl)cnc1N
Second: CCc1cc(NC(=O)[C@H](O)c2cc(F)cc(F)c2)ccc1-c1cnc(N)c(C(=O)NC(C)C)c1
The pIC50 of the first is 0.41 log units lower: 7.64 for the first, 8.05 for the second. The second is the more potent here.

Going from `COc1cc(NC(=O)[C@H](O)c2cc(F)cc(F)c2)ccc1-c1cnc(N)c(C(=O)NC(C)C)c1` to `Cc1cc(NC(=O)[C@H](O)c2cc(F)cc(F)c2)ccc1-c1cnc(C)c(C(=O)NC(C)C)c1`, the pIC50 falls from 6.44 to 6.20 (0.24 log units). The first is the more potent here.

`Cc1cc(NC(=O)[C@H](O)c2cc(F)cc(F)c2)ccc1-c1cnc(N)c(C(=O)NC(C)C)n1` and `CNC(=O)c1nc(-c2ccc(NC(=O)[C@H](O)c3cc(F)cc(F)c3)cc2C)cnc1N` are within 0.2 log units of each other in pIC50: 7.38 for the first, 7.40 for the second.

First: Cc1cc(NC(=O)[C@H](O)c2cc(F)cc(F)c2)ccc1-c1cc(C(=O)NC(C)C)c(N)nn1
Second: CNc1ncc(-c2ccc(NC(=O)[C@H](O)c3cc(F)cc(F)c3)cc2C)cc1C(=O)NC(C)C
The pIC50 of the first is 0.27 log units lower: 5.12 for the first, 5.39 for the second. The second is the more potent here.

First: Cc1cc(NC(=O)[C@H](O)c2cc(F)cc(F)c2)ccc1-c1cncc(C(=O)NC(C)C)c1
Second: Cc1cc(NC(=O)[C@H](O)c2cc(F)cc(F)c2)ccc1-c1ccc(N)nc1
The pIC50 of the first is higher: 6.74 for the first, under 5.00 for the second.
